SMILES strings stand for the structures. Structures can show the parent of a compound that is named as a salt.

Consider 17 molecules from patent US5576324A, “Quinoline derivatives or salt thereof and remedy for cardiac diseases containing the same” (Kowa Co., Ltd., priority 1992, dated 1996).

For experiment [1], the system named is Guinea Pig Atrium (left atrium contraction). Put plainly: Inotropic action on guinea pig atrium samples. The note with it: Cavia porcellus, 10^-7 M, 1 Hz, 32° C., read-out: Increment of Contraction of the left atrium. The method, then:
Inotropic Action and Action Against Time-dependent Action on Guinea Pig Atrium Samples
Guinea pigs were smashed at the head, and were exsanguinated through a cut in the carotid artery. Their hearts were taken out. From each heart, the right and left atria were obtained. The atria were suspended in Krebs-Henzereit solution at 32° C. through which a gas containing 95% oxygen and 5% carbon dioxide was passed. The tensile strength was measured with a strain gauge, and was amplified and recorded. Beats of right atria were counted using a tachometer, and the counts were regarded as the cardiac rate. Electric pulses (1 Hz, 5 msec) having twice the magnitude of the threshold were applied onto the left atria. The samples were given to […] in an accumulative manner at intervals of 5 minutes.
The results are expressed by the increment of contraction of the left atrium when 10^-7 M of a sample was administered.

Experiment [2] concerns Mouse Arrhythmia Induced by Chloroform (ventricular fibrillation). Put plainly: Action on Mouse Arrhythmia Induced by Chloroform. The class given is in vivo. The conditions noted are these: 100 mg/kg given to mice, 20 min before chloroform. The method, then: Action on Mouse Arrhythmia Induced by Chloroform
Test compounds (100 mg/kg) were given to mice, and 20 minutes thereafter, the mice were confined in a pot filled with chloroform. Upon respiratory stoppage, the mice were immediately taken out of the pot, and electrocardiodiagram (lead II) was recorded to obtain ventricular tachycardia, ventricular fibrillation, and period until the cardiac arrest.

In experiment [3] the test system is Blood Flow of a Hind Leg of Anesthetic Dog. Description: Action on the Blood Flow of a Hind Leg of Anesthetic Dog. Type of experiment: in vivo. The note with it: Canis lupus familiaris; 100 μg into femoral artery, anesthetized dog; read-out: Increment of Blood Flow. The method, then: Action on the Blood Flow of a Hind Leg of Anesthetic Dog
Adult crossbred dogs were put under anesthesia with pentobarbital-Na (30 mg/kg) by intravenous injection, Heparin was administered to each dog, and an extracorporeal circulation circuit was established in the femoral artery, The blood flow in the hind leg was measured with an electromagnetic hemodromometer placed on the circuit, The samples were administered at a dose of 100 μg into the feromal artery through a rubber tube provided on the circuit.

As for `Cc1cc2c(c3ccc(=O)[nH]c13)OC(CN)C2C` (stereo not drawn) [Example 13, (2RS, 3SR)-2-Aminomethyl-3,5-dimethyl-2,3,6,7-tetrahydrofuro[2,3-f]quinoline-7-one.HCl], the activation at 0.1 µM in experiment [1] worked out at 31.8%.
As to `Cc1cc2c(c3ccc(=O)[nH]c13)OC(C)(CN)C2` (stereo not drawn) [Example 20], in experiment [2], the “% Inhibition of ventricular fibrillation” value came to 100%.
Turning to `Cc1cc2c(c3c1NC(=O)CC3)OC(C)(CN)C2` (stereo not drawn) [Example 21], in experiment [3], the change in vivo at 0.1 mg was 35.7%.
In the case of `Cc1cc2c(c3ccc(=O)[nH]c13)OC(C)(CN)C2(C)C` (stereo not drawn) [Example 22], the “% Inhibition of ventricular fibrillation” value in experiment [2] was 90%.
On to `NCC1Cc2c(ccc3[nH]c(=O)ccc23)O1` (stereo not drawn) [Example 50, 2-Aminomethyl-1,2,6,7-tetrahydrofuro[3,2-f]quinoline-7-one], for which the change in vivo at 0.1 mg in experiment [3] stood at 26.7%. Further, the activation at 0.1 µM in experiment [1] amounted to 11.1%.
As to `CCN(CC)CC1Cc2cc(C)c3c(c2O1)CCC(=O)N3` (stereo not drawn) [Example 77], the “% Inhibition of ventricular fibrillation” value in experiment [2] was 100%.
Consider `Cc1cc2c(c3ccc(=O)[nH]c13)OC(CN1CCCCC1)C2` (stereo not drawn) [Example 82], for which, in experiment [3], the change in vivo at 0.1 mg stood at 31%.
With `CCCCNCC1Cc2cc(C)c3[nH]c(=O)ccc3c2O1` (stereo not drawn) [Example 94, 2-(n-butylamino)methyl-5-methyl-2,3,6,7-tetrahydrofuro[2,3-f]quinoline-7-one.HCl], the “% Inhibition of ventricular fibrillation” value in experiment [2] was 100%.
With `COc1ccc(CCNCC2Cc3cc(C)c4[nH]c(=O)ccc4c3O2)cc1OC` (stereo not drawn) [Example 99], the change in vivo at 0.1 mg in experiment [3] is 97%.
As to `CC(=O)OCC1Cc2cc(C)c3[nH]c(=O)ccc3c2O1` (stereo not drawn) [Example 103, 2-Acetoxymethyl-5-methyl-2,3,6,7-tetrahydrofuro-[2,3-f]quinoline-7-one], the change in vivo at 0.1 mg in experiment [3] was 66.7%. Besides, the activation at 0.1 µM in experiment [1] is 13.1%.
Taken in the same sequence, the figures for `Cc1cc2c(c3ccc(=O)[nH]c13)OC(CI)C2` (stereo not drawn) [Example 106, 2-Iodomethyl-5-methyl-2,3,6,7-tetrahydrofuro-[2,3-f]quinoline-7-one] were 39.5% and 46.8%.
`Cc1cc2c(c3ccc(=O)[nH]c13)OC(CF)C2` (stereo not drawn) [Example 107, 2-Fluoromethyl-5-methyl-2,3,6,7-tetrahydrofuro-[2,3-f]quinoline-7-one]: the change in vivo at 0.1 mg in experiment [3] was 54.1%.
On to `Cc1cc2c(c3c1NC(=O)CC3)OC(CF)C2` (stereo not drawn) [Example 108], for which the change in vivo at 0.1 mg in experiment [3] worked out at 54.8%.
On to `COCC1Cc2cc(C)c3[nH]c(=O)ccc3c2O1` (stereo not drawn) [Example 109], for which the activation at 0.1 µM in experiment [1] came to 20.3%.
Consider `Cc1cc2c(c3c1NC(=O)CC3)OC(CNS(C)(=O)=O)C2` (stereo not drawn) [Example 114], for which the activation at 0.1 µM in experiment [1] came out at 18.8%.
As for `NCC1Cc2cc(Cl)c3[nH]c(=O)ccc3c2O1` (stereo not drawn) [Example 120, 2-Aminomethyl-5-chloro-2,3,6,7-tetrahydrofuro[2,3-f]quinoline-7-one.HCl], the change in vivo at 0.1 mg in experiment [3] came out at 110%. In experiment [2], the “% Inhibition of ventricular fibrillation” value turned out to be 90%.
On to `NCC1Cc2cc(Cl)c3c(c2O1)CCC(=O)N3` (stereo not drawn) [Example 121], for which the “% Inhibition of ventricular fibrillation” value in experiment [2] is 100%.
